In US6465618B1, “Mitogen activated protein kinase (MAPK) kinase” (Asahi Kasei Kabushikiki Kaisha, priority 1997, dated 2002):

What was measured:
SEK1/MKK4 = experiment: Activation of SEK1/MKK4 by TNF-α in KB and U937 cells (immune complex kinase assay); type: cell-based; details: KB cells 20 ng/ml, U937 cells 100 ng/ml human TNF-α; 5 to 180 minutes
Experimental: (§1) KB cells were cultured in Dulbecco's modified Eagles medium (DMEM) containing 10% bovine serum, and the cultured cells were stimulated with 20 ng/ml human TNF-α (manufactured and sold by BECTON DICKINSON AND COMPANY, USA, under the brand of Collaborative Biomedical Products). U937 cells were cultured in RPMI 1640 medium containing 10% fetal bovine serum, and the cultured cells were stimulated with 100 ng/ml human TNF-α. The cells were sampled from each cell culture 5, 15, 30, 60, 120 and 180 minutes after the start of the stimulation to thereby prepare cell extracts. The cell extracts were prepared as follows. The sampled cells were suspended in 0.7 M NaCl solution and washed once with ice-cold HEPES-buffered saline. […]
(§2) To 200 μl of the cell extract was added 3 μl of an antiserum (anti-MKK7 antiserum and anti-SEK1/MKK4 antiserum were separately used), and a reaction for preparing an immune complex was allowed to proceed while incubating at 4° C. for 1 hour. […] The phosphorylation of c-Jun was detected by autoradiography and used as an index for the activation of MKK7 or SEK1/MKK4 by TNF-α.

MKK7 = experiment: Activation of MKK7 by TNF-α in KB and U937 cells (immune complex kinase assay); type: cell-based; details: KB cells 20 ng/ml, U937 cells 100 ng/ml human TNF-α; 5 to 180 minutes
Experimental: as §1, §2

Substance: TNF-α
- activation of SEK1/MKK4 by TNF-α (phosphorylation of c-Jun as index) (SEK1/MKK4): did not activate
- activation of MKK7 by TNF-α (phosphorylation of c-Jun as index) (MKK7): activated
